From publication PMC8124228, “New Hybrids Based on Curcumin and Resveratrol: Synthesis, Cytotoxicity and Antiproliferative Activity against Colorectal Cancer Cells” (Molecules, 2021)
Converted amounts (≈) assume the structure as drawn. Where two headings read alike, the source gives them in different places.

Key:
tubulin polymerization [1] = system: tubulin polymerization; parameters: method as in PMID 26515041; details: evaluated in HCT-116 cells; cited from earlier work
[2] = system: MDA-MB-231/ATCC, PC-3, SNB-75, RPMI-8226, MOLT-4, CCRF-CEM and HS 578T cell lines; parameters: method as in doi:10.1007/s00044-014-1146-2; details: mean over cell lines; cited from earlier work
SW480 cells = system: SW480 cells; parameters: method as in doi:10.1007/s00044-018-2202-0; details: SW480, 48 h; cited from earlier work
B16-F10 cell line = details: cited from earlier work
A549 cell line = details: cited from earlier work
tubulin polymerization [3] = details: cited from earlier work
HepG2 cell line = details: cited from earlier work
[4] = system: SW620 cells (metastatic derivative of SW480); assay: Sulforhodamine B (SRB) cytotoxicity assay, SW620; assay type: cell-based, human; details: for SI (selectivity index): IC50 CHO-K1 / IC50 SW620; for IC50: Homo sapiens, SW-620, SRB, mean ± SE
Protocol: (§1) To determine the cytotoxic effect of the synthesized hybrids, they were evaluated against SW480 human colon adenocarcinoma cells, its metastatic derivative SW620 and the non-malignant CHO-K1 cell line, through the sulforhodamine B assay. In this experiment, 5-FU was also included as the reference drug, as well as the parental subunits (curcumin and resveratrol) and the equimolar mixture of these. Cytotoxicity was reported as 50% inhibitory concentration (IC50 values).
(§2) Biological assays were performed using an adenocarcinoma colon cancer cell line (SW480), its metastatic derivative (SW620) and non-malignant cells (CHO-K1). These were obtained from The European Collection of Authenticated Cell Cultures (ECACC, England) and maintained in Dulbecco’s Modified Eagle Medium, supplemented with 10% heat-inactivated (56 °C) horse serum, 1% penicillin/streptomycin and 1% non-essential amino acids (Gibco Invitrogen, Carlsbad, USA). For all experiments, horse serum was reduced to 3%, and the medium was supplemented with […], 5 ng/mL selenium and […] (ITS-defined medium; Gibco, Invitrogen, Carlsbad, CA, USA).
(§3) Cytotoxicity of the synthesized hybrids, lead and reference compounds was evaluated through Sulforhodamine B (SRB) assay, a colorimetric test that is based on staining of total cellular protein of adherent cells. Cells were seeded to a final density of 20,000 cells/well in 96-well tissue culture plates and incubated at 37 °C in a humidified atmosphere at 5% CO2. All cultures were allowed to grow for 24 h, and afterward they were treated with DMSO (vehicle control 1%) or increasing concentrations (0.01–200 µM) of the synthesized hybrids, as well as curcumin and resveratrol (lead compounds), the equimolar mixture of these and 5-fluorouracil (5-FU; the standard drug). After treatment, cells were fixed with trichloroacetic acid (50% v/v) (MERCK) for a period of 1 h at 4 °C. Cell proteins were determined by staining with 0.4% (w/v) SRB (Sigma-Aldrich, United States), and then they were washed with 1% acetic acid for the removal of unbound SRB and left for air-drying. Protein bound SRB was solubilized in 10 mM Tris-base and the absorbance was measured at 492 nm in a microplate reader (Mindray MR-96A). All experiments were performed at least in triplicate.

SW620 cell line = assay: Antiproliferative activity (SRB, 2-8 days), SW620; assay type: cell-based, human; details: for viability at 10 µM / viability at 160 µM: Homo sapiens, vehicle control = 100%, read-out: Viability (%) ± SE; for viability at 10 µM: SW620, 10 µM; for viability at 160 µM: SW620, 160 µM
Protocol: (§4) With the aim of testing the antiproliferative effect of the most cytotoxic and selective hybrids (3e and 3i for SW480 and 3a, 3e and 3k for SW620), they were analyzed through a longer period. According to the results in comparison with the control, it was observed that the activity was time- and concentration-dependent, as evidenced by the decrease in cell viability in the highest concentrations (Table 2). […] Similar results were presented in a previous investigation by Herrera-R et al. (2018), reporting the antiproliferative effect and morphological changes in SW480 cells after treatment with different hybrids using a stilbene moiety, which highlights the potential of this scaffold in the approach to design molecules with potential activity against CRC.
(§5) Briefly, cells were seeded to a final density of 2500 cells/well in 96-well tissue culture plates and incubated in the same conditions described for cytotoxicity. […] Culture media was replaced every 48 h. After each incubation time, cells were fixed, stained and read as previously described for this technique.

[5] = system: non-malignant CHO-K1 cell line; assay: Sulforhodamine B (SRB) cytotoxicity assay, non-malignant cells; assay type: cell-based; details: Cricetulus griseus, mean ± SE
Protocol: as §1, §2, §3

[6] = system: SW480 human colon adenocarcinoma cells; assay: Sulforhodamine B (SRB) cytotoxicity assay, SW480; assay type: cell-based; details: for SI (selectivity index): IC50 CHO-K1 / IC50 SW480; for IC50: SRB, mean ± SE
Protocol: as §1, §2, §3

SW480 cell line = assay: Antiproliferative activity (SRB, 2-8 days), SW480; assay type: cell-based; details: Homo sapiens, vehicle control = 100%, read-out: Viability (%) ± SE; for viability at 10 µM: SW480, 10 µM; for viability at 160 µM: SW480, 160 µM
Protocol: as §4, §5

[7] = system: LNCaP (human androgen-dependent prostate cancer) cell line; parameters: method as in PMID 26341135; details: cited from earlier work
SiHa human cancer cells = system: SiHa human cancer cells; parameters: method as in doi:10.1007/s00044-016-1514-1; details: cited from earlier work
[8] = system: PANC-1 human cancer cells; parameters: method as in doi:10.1007/s00044-016-1514-1; details: cited from earlier work
[9] = system: MDA-MB-231 human cancer cells; parameters: method as in doi:10.1007/s00044-016-1514-1; details: cited from earlier work
[10] = system: SKOV-3 ovarian carcinoma cells; parameters: method as in PMID 26174555; details: cited from earlier work
[11] = system: MCF-7 human breast cancer cell line; parameters: method as in PMID 26174555; details: cited from earlier work
[12] = system: H-460 human lung cancer cells; parameters: method as in PMID 26174555; details: cited from earlier work
[13] = system: A549 human lung cancer cells; parameters: method as in PMID 26174555; details: cited from earlier work
[14] = Homo sapiens, SW480, 24 h, 24 h

For COc1cc(/C=C/C(=O)/C=C/c2cc(OC)c(OC)c(OC)c2)ccc1CCc1cn(CCN2C(=O)C(=O)c3ccccc32)nn1, which “inhibition of tubulin polymerization at (concentration)” value (tubulin polymerization [1]) is on record?
Its value is 1.2 µM.

Which “mean growth percentage (GP)” value [2] does the source give for COc1ccc(C2NC(=O)NC(/C=C/c3ccc(O)c(OC)c3)=C2C(=O)/C=C/c2ccc(O)c(OC)c2)cc1 (centres unmarked) [Curcumin–monastrol hybrid] here?
The value was 88.90.

With COc1cc(/C=C/c2ccc3ccc(=O)oc3c2)cc(OC)c1O [Figure 1H] as the molecule, how does the IC50 (SW480 cells) read?
Its IC50 is 1.01 µM.

For COc1ccc(/C=C/c2cc(OC)cc(OC)c2/C=C/C(=O)c2ccc(C)c(C)c2)cc1 [Figure 1I], which IC50 (B16-F10 cell line) is on record?
The IC50 was 0.1 µg/mL (≈ 0.233 µM).

What about the IC50 (A549 cell line) of the same molecule?
The IC50 was 1.4 µg/mL (≈ 3.27 µM).

And the “tubulin polymerization inhibitory activity at (concentration)” value (tubulin polymerization [3])?
The value was 2.6 µg/mL.

And the IC50 (HepG2 cell line)?
The IC50 was 0.2 µg/mL (≈ 0.467 µM).

For COc1ccc(/C=C/c2ccc(C(=O)/C=C/c3ccc(O)c(OC)c3)cc2)c(OC)c1 [Hybrid 3e, (E)-1-(4-((E)-2,4-Dimethoxystyryl)phenyl)-3-(4-hydroxy-3-methoxyphenyl)prop-2-en-1-one], which “SI (selectivity index)” value ([4]; 24 h) is on record?
The value was 1.81.

What about the IC50 ([4]; 24 h) of the same molecule?
Its IC50 is 55.5 ± 8 µM.

And the IC50 ([4]; 48 h)?
The IC50 was 20.4 ± 3.51 µM.

And the viability at 10 µM (SW620 cell line; SW-620, 48 h, day 2)?
Its viability at 10 µM is 80.6 ± 4%.

And the viability at 160 µM (SW620 cell line; SW-620, 48 h, day 2)?
Its viability at 160 µM is 5 ± 1%.

And the viability at 10 µM (SW620 cell line; SW-620, 96 h, day 4)?
Its viability at 10 µM is 11.1 ± 4.2%.

What about the viability at 160 µM (SW620 cell line; SW-620, 96 h, day 4) of the same molecule?
The viability at 160 µM was 4.1%.

And the viability at 10 µM (SW620 cell line; SW-620, 144 h, day 6)?
Its viability at 10 µM is 4.1 ± 2.2%.

What about the viability at 160 µM (SW620 cell line; SW-620, 144 h, day 6) of the same molecule?
Its viability at 160 µM is 0%.

What about the viability at 10 µM (SW620 cell line; SW-620, 192 h, day 8) of the same molecule?
Its viability at 10 µM is 0.6 ± 0.5%.

What about the viability at 160 µM (SW620 cell line; SW-620, 192 h, day 8) of the same molecule?
Its viability at 160 µM is 0%.

What about the reduction in viability (SW620 cell line; SW620, after two days of treatment, concentrations higher than 10 µM) of the same molecule?
The reduction in viability was “significant reduction in viability”.

And the IC50 ([5]; 24 h)?
Its IC50 is 100.6 ± 1 µM.

What about the IC50 ([5]; 48 h) of the same molecule?
The IC50 was 43.3 ± 6.84 µM.

What about the melting point of the same molecule?
The melting point was 78 to 82 °C.

And the “SI (selectivity index)” value ([6]; 24 h)?
The value was 1.85.

What about the IC50 [6, 14] of the same molecule?
Its IC50 is 54.4 ± 6.93 µM.

And the viability at 10 µM (SW480 cell line; 48 h, day 2)?
Its viability at 10 µM is 53.9 ± 5.3%.

What about the viability at 160 µM (SW480 cell line; 48 h, day 2) of the same molecule?
Its viability at 160 µM is 32.9 ± 1.3%.

And the viability at 10 µM (SW480 cell line; 96 h, day 4)?
The viability at 10 µM was 2.3 ± 0.3%.

What about the viability at 160 µM (SW480 cell line; 96 h, day 4) of the same molecule?
The viability at 160 µM was 0.9 ± 0.2%.

What about the viability at 10 µM (SW480 cell line; 144 h, day 6) of the same molecule?
Its viability at 10 µM is 3.8 ± 2.7%.

And the viability at 160 µM (SW480 cell line; 144 h, day 6)?
Its viability at 160 µM is 0.5 ± 0.2%.

And the viability at 10 µM (SW480 cell line; 192 h, day 8)?
Its viability at 10 µM is 5.2 ± 0.3%.

What about the viability at 160 µM (SW480 cell line; 192 h, day 8) of the same molecule?
Its viability at 160 µM is 0.1 ± 0.1%.

What does the source list for COc1cc(/C=C/C(=O)c2ccc(/C=C/c3ccc(OC)c(OC)c3)cc2)ccc1O [Hybrid 3i, (E)-1-(4-((E)-3,4-dimethoxystyryl)phenyl)-3-(4-hydroxy-3-methoxyphenyl)prop-2-en-1-one]?
SI (selectivity index) ([4]; 24 h): 1.32; SI (selectivity index) ([4]; 48 h): 0.96; IC50 ([4]; 24 h): 78.9 ± 6.2 µM; IC50 ([4]; 48 h): 29.3 ± 4.73 µM; IC50 ([5]; 24 h): 104 ± 5.03 µM; IC50 ([5]; 48 h): 28.3 ± 9.3 µM; melting point: 67 to 70 °C; SI (selectivity index) ([6]; 24 h): 2.09; IC50 ([6]; 48 h): 11.5 ± 2.78 µM; IC50 [6, 14]: 49.7 ± 4.56 µM; IC50 ([6]; Homo sapiens, SW480, 48 h, 48 h): 11.5 to 29.2 µM; viability at 10 µM (SW480 cell line; 48 h, day 2): 54.4 ± 7.4%; viability at 160 µM (SW480 cell line; 48 h, day 2): 30.3 ± 8.5%; viability at 10 µM (SW480 cell line; 96 h, day 4): 2 ± 0.2%; viability at 160 µM (SW480 cell line; 96 h, day 4): 1.7 ± 0.1%; viability at 10 µM (SW480 cell line; 144 h, day 6): 1.6 ± 0.2%; viability at 160 µM (SW480 cell line; 144 h, day 6): 0.1 ± 0.1%; viability at 10 µM (SW480 cell line; 192 h, day 8): 1.6 ± 0.3%; viability at 160 µM (SW480 cell line; 192 h, day 8): 0.2 ± 0.1%

Which IC50 [7] does the source give for CCn1ccnc1/C=C/C(=O)/C=C/c1coc2ccccc2c1=O [Hybrid curcum–imidazol] here?
The IC50 was 1 µM.

For COc1cc(/C=C/c2ccc(NC(=O)CSc3nnc(-c4cccc(C(F)(F)F)c4)o3)cc2)cc(OC)c1 [Resveratrol–oxadiazole hybrid F], which GI50 (SiHa human cancer cells) is on record?
The GI50 was less than 0.1 µM.

And the GI50 [8]?
Its GI50 is less than 0.1 µM.

What about the GI50 [9] of the same molecule?
The GI50 was less than 0.1 µM.

What does the source list for C#CCn1c(=O)c(/C=C/C(=O)CC(=O)/C=C/c2ccc(O)c(OC)c2)cc2cc(C)ccc21 [curcumin–quinolone hybrid]?
IC50 [10]: 12.8 µM; IC50 [11]: 36.2 µM; IC50 [12]: 21.8 µM; IC50 [13]: 23.9 µM
